Assay results from ChEMBL document CHEMBL1201862, “PubChem BioAssay data set” (2004).
Activity calls are given as the source filed them.

How the values were obtained:
Format in all cases: functional
[1] = molecular target: T1, Replicative DNA helicase DnaB (Mycobacterium tuberculosis, UniProt P9WMR3); assay: DnaB intein splicing inhibitors, dose response, biochemical, cell-free fluorescence (AID 449749)
T1 sequence (P9WMR3 whole entry): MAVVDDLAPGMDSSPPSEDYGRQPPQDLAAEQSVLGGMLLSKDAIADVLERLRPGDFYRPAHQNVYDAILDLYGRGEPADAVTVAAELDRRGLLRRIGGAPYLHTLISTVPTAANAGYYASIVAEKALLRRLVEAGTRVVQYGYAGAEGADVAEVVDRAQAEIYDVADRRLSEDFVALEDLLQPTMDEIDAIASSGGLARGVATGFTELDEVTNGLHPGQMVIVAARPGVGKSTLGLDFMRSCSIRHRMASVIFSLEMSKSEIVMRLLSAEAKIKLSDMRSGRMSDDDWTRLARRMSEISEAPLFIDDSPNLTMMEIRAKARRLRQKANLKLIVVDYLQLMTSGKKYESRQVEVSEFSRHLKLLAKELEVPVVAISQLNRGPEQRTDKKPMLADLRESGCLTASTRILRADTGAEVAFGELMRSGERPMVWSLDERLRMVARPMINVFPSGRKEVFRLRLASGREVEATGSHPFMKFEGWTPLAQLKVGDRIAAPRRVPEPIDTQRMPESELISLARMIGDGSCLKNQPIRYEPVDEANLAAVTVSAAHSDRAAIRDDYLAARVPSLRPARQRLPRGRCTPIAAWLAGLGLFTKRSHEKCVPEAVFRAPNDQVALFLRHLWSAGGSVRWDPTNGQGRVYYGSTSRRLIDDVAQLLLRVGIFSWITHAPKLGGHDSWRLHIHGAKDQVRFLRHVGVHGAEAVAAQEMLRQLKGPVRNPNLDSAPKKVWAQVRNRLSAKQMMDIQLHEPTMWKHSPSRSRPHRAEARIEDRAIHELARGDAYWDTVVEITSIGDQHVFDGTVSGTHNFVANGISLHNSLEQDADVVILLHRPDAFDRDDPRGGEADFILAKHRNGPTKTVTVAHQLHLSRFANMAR

[2] = molecular target: T2, Apoptotic protease-activating factor 1 (Homo sapiens, UniProt O14727)
T2 sequence (O14727 whole entry): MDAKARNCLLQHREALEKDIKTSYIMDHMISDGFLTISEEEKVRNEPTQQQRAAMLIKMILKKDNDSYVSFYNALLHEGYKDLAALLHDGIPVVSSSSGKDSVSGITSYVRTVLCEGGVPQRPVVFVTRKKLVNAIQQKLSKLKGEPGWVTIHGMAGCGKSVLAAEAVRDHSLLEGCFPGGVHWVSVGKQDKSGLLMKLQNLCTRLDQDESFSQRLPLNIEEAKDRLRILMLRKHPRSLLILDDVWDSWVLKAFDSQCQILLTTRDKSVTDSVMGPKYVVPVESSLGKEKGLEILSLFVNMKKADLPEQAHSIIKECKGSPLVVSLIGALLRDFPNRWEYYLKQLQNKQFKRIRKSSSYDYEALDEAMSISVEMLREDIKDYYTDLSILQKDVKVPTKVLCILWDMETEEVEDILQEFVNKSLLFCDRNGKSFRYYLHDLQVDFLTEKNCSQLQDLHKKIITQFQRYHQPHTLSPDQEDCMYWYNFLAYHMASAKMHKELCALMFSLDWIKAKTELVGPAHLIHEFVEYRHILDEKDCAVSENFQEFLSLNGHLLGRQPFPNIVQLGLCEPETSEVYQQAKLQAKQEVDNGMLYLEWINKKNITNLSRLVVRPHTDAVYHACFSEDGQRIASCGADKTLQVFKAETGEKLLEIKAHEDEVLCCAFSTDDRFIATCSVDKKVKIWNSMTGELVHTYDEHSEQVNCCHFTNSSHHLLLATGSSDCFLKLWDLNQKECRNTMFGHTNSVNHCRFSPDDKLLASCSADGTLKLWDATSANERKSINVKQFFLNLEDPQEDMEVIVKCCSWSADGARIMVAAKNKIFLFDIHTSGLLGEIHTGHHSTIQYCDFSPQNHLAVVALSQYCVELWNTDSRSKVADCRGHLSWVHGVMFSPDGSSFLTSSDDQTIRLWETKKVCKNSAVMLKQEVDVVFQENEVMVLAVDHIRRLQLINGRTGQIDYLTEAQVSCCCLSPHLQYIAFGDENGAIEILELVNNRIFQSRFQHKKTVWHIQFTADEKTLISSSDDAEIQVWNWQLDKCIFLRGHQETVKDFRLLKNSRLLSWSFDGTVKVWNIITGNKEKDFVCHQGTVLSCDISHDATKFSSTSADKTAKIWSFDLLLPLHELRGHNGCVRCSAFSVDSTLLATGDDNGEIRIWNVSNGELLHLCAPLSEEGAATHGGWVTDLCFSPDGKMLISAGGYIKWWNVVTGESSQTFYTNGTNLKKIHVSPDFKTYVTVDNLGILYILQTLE

Protein RecA = molecular target: T3, Protein RecA (Mycobacterium tuberculosis, UniProt P9WHJ3); assay: Fluorescence Cell-Free Homogeneous Dose Retest to Identify Inhibitors of RecA-Intein Splicing Activity. [Related pubchem assays (depositor defined):AID2097, AID2223, AID489010, AID492950]
T3 sequence (P9WHJ3 whole entry): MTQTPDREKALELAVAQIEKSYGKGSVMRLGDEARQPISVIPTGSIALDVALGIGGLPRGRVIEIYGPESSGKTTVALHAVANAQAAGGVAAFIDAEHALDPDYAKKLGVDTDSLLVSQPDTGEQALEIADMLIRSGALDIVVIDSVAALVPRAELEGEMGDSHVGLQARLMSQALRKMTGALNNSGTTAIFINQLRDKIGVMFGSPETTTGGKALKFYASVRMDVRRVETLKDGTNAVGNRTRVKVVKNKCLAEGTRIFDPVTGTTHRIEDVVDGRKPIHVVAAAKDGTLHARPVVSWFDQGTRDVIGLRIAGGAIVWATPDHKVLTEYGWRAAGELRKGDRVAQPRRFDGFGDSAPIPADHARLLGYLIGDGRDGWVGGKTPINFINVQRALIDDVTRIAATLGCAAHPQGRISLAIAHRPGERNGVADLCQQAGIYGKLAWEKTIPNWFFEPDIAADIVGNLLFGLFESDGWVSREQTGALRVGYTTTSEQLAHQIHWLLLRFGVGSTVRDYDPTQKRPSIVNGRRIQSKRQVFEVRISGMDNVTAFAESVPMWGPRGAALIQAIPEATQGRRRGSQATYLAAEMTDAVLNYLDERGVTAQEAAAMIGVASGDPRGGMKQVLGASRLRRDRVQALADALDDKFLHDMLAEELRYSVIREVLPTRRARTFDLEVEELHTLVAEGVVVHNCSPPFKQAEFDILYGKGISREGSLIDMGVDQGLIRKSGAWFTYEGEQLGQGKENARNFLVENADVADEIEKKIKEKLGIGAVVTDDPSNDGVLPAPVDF

Compound	AC50 [1]	IC50 [2]	EC50 (Protein RecA)
Cc1cccc(NC2=C(NC(=O)c3ccccc3)C(=O)c3ccccc3C2=O)c1	3.96 µM (active)	13.4 µM (active)	1.71 µM (active)
Cc1[nH][nH]c(=O)c1C(c1c(C)[nH][nH]c1=O)c1cn(Cc2ccccc2Cl)c2ccccc12	0.242 µM (active)	–	0.299 µM (active)
CC(C)=CCC1=C(OCC(=O)O)C(=O)c2ccccc2C1=O	9.19 µM (active)	6.11 µM (active)	7.75 µM (active)
